Results on 17 compounds are retold here after PubChem BioAssay (NCI).

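Protocol summary: plate cells (96-well), add compound at 5 concentrations, incubate 48 h, interpolate endpoints linearly. TGI marks complete inhibition of growth.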

Test systems include A549 NSCLC; CAKI-1 renal; COLO 205 colon; M14 melanoma; RPMI-8226 leukemia; RXF 393 renal; SK-MEL-2 melanoma; SK-OV-3 ovarian; SNB-19 CNS.
What all share (experiment): NCI-60 cell line screen, 48 h

As for `CCOC(=O)/C(C#N)=C/c1[nH]c(C)c(C)c1C`, the TGI in the assay on A549 NSCLC, in the assay on CAKI-1 renal, in the assay with COLO 205 colon, in the assay with M14 melanoma, in the assay with RPMI-8226 leukemia and in the assay with RXF 393 renal was over 100 µM in each case. Moreover, the TGI in the assay on SK-MEL-2 melanoma, with SK-OV-3 ovarian and in the assay with SNB-19 CNS was over 100 µM throughout.

For `O=C1C2Cc3ccccc3CN2C(=O)N1CCN1CCOCC1` (stereo not drawn), the TGI in the assay with A549 NSCLC, in the assay with CAKI-1 renal, with COLO 205 colon, with M14 melanoma, in the assay on RPMI-8226 leukemia and in the assay with SK-MEL-2 melanoma was over 100 µM throughout. This compound had a TGI with SNB-19 CNS of over 100 µM.

For `O=C1CCC(=O)C12CCc1ccccc12`, the TGI in the assay on A549 NSCLC, with CAKI-1 renal, in the assay on COLO 205 colon, with M14 melanoma, with RXF 393 renal and in the assay with SK-OV-3 ovarian was over 100 µM each time.

Take `CC1(C)OC(=O)C(c2ccsc2)C(=O)O1`: the TGI in the assay with A549 NSCLC, in the assay with CAKI-1 renal, in the assay on COLO 205 colon, in the assay with M14 melanoma, with RPMI-8226 leukemia and with RXF 393 renal was over 100 µM in each case. Besides, the TGI with SK-MEL-2 melanoma, in the assay on SK-OV-3 ovarian and with SNB-19 CNS was over 100 µM in each case.

`COC(=O)C1=CCS(=O)(=O)C1`: the TGI in the assay on A549 NSCLC, in the assay on CAKI-1 renal, in the assay with COLO 205 colon, with M14 melanoma, with RPMI-8226 leukemia and in the assay on RXF 393 renal was over 100 µM each time. Further, the TGI in the assay on SK-MEL-2 melanoma, with SK-OV-3 ovarian and in the assay on SNB-19 CNS was over 100 µM throughout.

As for `OC1OC2COC(c3ccccc3)OC2C(O)C1O` (stereo not drawn), the TGI with A549 NSCLC, with CAKI-1 renal, in the assay with COLO 205 colon, with M14 melanoma, in the assay on RPMI-8226 leukemia and in the assay with SK-MEL-2 melanoma was over 100 µM throughout. The TGI with SK-OV-3 ovarian and in the assay on SNB-19 CNS was over 100 µM each time.

As for `Nc1c(-c2ccc(-c3c(N)[n+]([O-])c4ccccc4[n+]3[O-])cc2)[n+]([O-])c2ccccc2[n+]1[O-]`, the TGI in the assay with A549 NSCLC was 51.9 µM; in the assay on CAKI-1 renal, 20.3 µM; with COLO 205 colon, 29.6 µM; in the assay with M14 melanoma it was 35.1 µM; in the assay with RPMI-8226 leukemia, over 100 µM; in the assay on SK-MEL-2 melanoma, 28.9 µM. For the same compound, the TGI with SK-OV-3 ovarian stood at 52.7 µM; in the assay on SNB-19 CNS, 29 µM.

As to `Fc1cccc(C2SCc3nc4ccccc4n32)c1` (stereo not drawn), the TGI is over 100 µM in the assay on A549 NSCLC; over 100 µM in the assay with CAKI-1 renal; over 100 µM with COLO 205 colon; over 100 µM in the assay with RPMI-8226 leukemia; over 10 µM in the assay on RXF 393 renal; over 100 µM in the assay on SK-MEL-2 melanoma. For the same compound, the TGI in the assay with SK-OV-3 ovarian and with SNB-19 CNS was over 100 µM each time.

As to `O=C(NCCOCCO)c1ccc(O)cc1`, the TGI with A549 NSCLC, with COLO 205 colon, with M14 melanoma, with RPMI-8226 leukemia, in the assay with RXF 393 renal and with SK-OV-3 ovarian was over 100 µM throughout.

For `O=c1cc(/C=C/c2ccccc2)c2ccc(O/C(=C\c3ccccc3)c3nc4ccccc4c(=O)o3)cc2o1`, the TGI is over 100 µM in the assay with A549 NSCLC; over 100 µM in the assay on CAKI-1 renal; 73.8 µM in the assay on COLO 205 colon; 50.1 µM in the assay on M14 melanoma; 60.3 µM in the assay on RPMI-8226 leukemia; 77.7 µM in the assay on SK-MEL-2 melanoma. Besides, the TGI with SK-OV-3 ovarian and in the assay on SNB-19 CNS was over 100 µM each time.

Regarding `NCCCSCC(=O)O`, the TGI in the assay with A549 NSCLC, in the assay with CAKI-1 renal, in the assay with COLO 205 colon, with RPMI-8226 leukemia, in the assay with RXF 393 renal and with SK-MEL-2 melanoma was over 100 µM throughout. Besides, the TGI with SK-OV-3 ovarian and in the assay on SNB-19 CNS was over 100 µM each time.

For the compound `CC(=O)Oc1cc(OC(C)=O)c(OC(C)=O)c2c1CC1C(=O)C3(CCc4ccccc43)C(=O)C1C2` (stereo not drawn), the TGI with A549 NSCLC is 44.6 µM; with CAKI-1 renal, 38.3 µM; in the assay on COLO 205 colon, 37.9 µM; in the assay on M14 melanoma it was over 100 µM; with RPMI-8226 leukemia, 13.1 µM; in the assay with RXF 393 renal, 28.6 µM. In addition, in the assay with SK-OV-3 ovarian, the TGI came to 58.8 µM.

`C=C1[C@@H]2CCC(C)(C)[C@H]1CCC(=O)[C@@H]2C(=O)OC`: the TGI with A549 NSCLC, in the assay on COLO 205 colon, in the assay with M14 melanoma, with RPMI-8226 leukemia, in the assay with RXF 393 renal and in the assay on SK-MEL-2 melanoma was over 100 µM each time. The compound also had a TGI with SNB-19 CNS of over 100 µM.

Turning to `CCN(CC)[C@@H]1c2cc3c(cc2C(c2cc(OC)c(O)c(OC)c2)C2C(=O)CO[C@@H]21)OCO3` (stereo partly drawn), the TGI with A549 NSCLC, in the assay on CAKI-1 renal, in the assay with COLO 205 colon, in the assay on M14 melanoma, in the assay on RPMI-8226 leukemia and with RXF 393 renal was over 100 µM in each case. Also, the TGI in the assay on SK-MEL-2 melanoma and in the assay with SK-OV-3 ovarian was over 100 µM throughout.

Consider `O=C1OC(/C=C/c2ccccc2)C(=O)C1=O` (stereo not drawn), for which the TGI in the assay with A549 NSCLC, in the assay with COLO 205 colon, with M14 melanoma, in the assay on RPMI-8226 leukemia, in the assay with RXF 393 renal and in the assay on SK-MEL-2 melanoma was over 100 µM in each case. Moreover, the TGI in the assay with SK-OV-3 ovarian and in the assay on SNB-19 CNS was over 100 µM in each case.

For `OC1/C(=C/c2ccccc2)CNC/C1=C\c1ccccc1` (stereo not drawn), the TGI in the assay with A549 NSCLC, in the assay on CAKI-1 renal, in the assay with COLO 205 colon, in the assay on M14 melanoma, in the assay with RPMI-8226 leukemia and in the assay with RXF 393 renal was over 100 µM in each case. The TGI in the assay with SK-OV-3 ovarian and in the assay on SNB-19 CNS was over 100 µM each time.

Regarding `CC(=O)c1ccc(-c2ccc(C(C)=O)s2)s1`, the TGI in the assay with A549 NSCLC, with CAKI-1 renal, with COLO 205 colon, in the assay on M14 melanoma, in the assay with RPMI-8226 leukemia and in the assay with RXF 393 renal was over 100 µM each time. For the same compound, the TGI with SK-MEL-2 melanoma, in the assay on SK-OV-3 ovarian and in the assay with SNB-19 CNS was over 100 µM throughout.
